Data set [1] is described as follows: DPPH radical-scavenging assay. As to conditions: read-out: Radical-scavenging DPPH assay EC50; means ± SEM (n = 2, in triplicates). A general note: Loss of DPPH colour is used to gauge radical scavenging.
Data set [2] concerns LPS-activated BV2 cells. Kind of data set: Nitrite quantification, Griess assay, LPS-stimulated BV2. The data set is classed as cell-based. The conditions noted are these: BV2, LPS 1 μg/mL, 19 at 5 μmol/L. For orientation: The Griess reaction detects nitrite, a stable product of nitric oxide.
Data set [3] relates to LPS-activated BV2 cells. Kind of data set: Neuroprotection in LPS-induced BV2 neuroinflammation model, 7-AAD. The data set is classed as cell-based. As to conditions: BV2, LPS 1 μg/mL, 19 at 0.5–5 μmol/L.
The nature of data set [4]: Metal chelation, UV–Vis spectra and Cu2+ titration. The data set is classed as physicochemical. As to conditions: 30 μmol/L QN, equimolar metal ion, HEPES pH 7.4.
For data set [5], the target named is T1, hBChE (Homo sapiens, UniProt P06276). The data set can be described thus: hBChE inhibition, Ellman's method. The conditions noted are these: hBChE IC50, abstract. The data set is classed as biochemical. For orientation: In Ellman's method for cholinesterases, released thiocholine reacts with DTNB.
Another data set relates to HepG2 cells. Kind of data set: Metabolic activity, MTS assay, HepG2. Format: cell-based. As to conditions: HepG2, 24 h, 1–100 μmol/L.
The test system of data set [6] is APPSwe/PS1δE9 double transgenic mice. Kind of data set: Aβ plaque load after chronic treatment, Thioflavin S staining. As to conditions: male and female mice at 10 months of age, 0.62 mg/kg/day, 4-month treatment.
The target in data set [7] is T1, hBChE. The data set can be described thus: hBChE inhibition kinetics, progress curves of BTCI hydrolysis. The data set is classed as biochemical. The conditions noted are these: 50 μmol/L BTCI, 25 °C, pH 7.0.
The subject of data set [8] is SH-SY5Y cells treated with 6-OHDA. Kind of data set: Neuroprotection against 6-OHDA toxicity, 7-AAD. The conditions noted are these: 100 μmol/L 6-OHDA. The data set is classed as cell-based.
The test system of a further data set is mice. Kind of data set: Rotarod test. The conditions noted are these: 30 mg/kg i.p.; 6, 18, and 24 rpm. The data set is classed as in vivo.
Another data set relates to SH-SY5Y cells. Kind of data set: Metabolic activity, MTS assay, SH-SY5Y. Format: cell-based. As to conditions: 24 h, 1–100 μmol/L.
The next data set can be described thus: BBB-PAMPA permeability. The conditions noted are these: PAMPA, pH 7.4, BBB–PAMPA permeability Papp (mean ± SD), pH 7.4, 4 h, 25 °C, brain sink buffer.
A further data set has as its system microglial BV2 cells. The data set can be described thus: Cytotoxicity, 7-AAD flow cytometry, BV2. The data set is classed as cell-based. The conditions noted are these: at 10 μmol/L; sentence does not say which of SH-SY5Y/BV2.
The next data set deals with Aβ1–42 (Homo sapiens, UniProt P05067). The data set can be described thus: Aβ1–42 aggregation inhibition, ThT fluorescence assay. Format: biochemical.
Data set [9] addresses T2, purified recombinant hMAO-B (Homo sapiens, UniProt P27338).
T2 sequence (P27338 1-520): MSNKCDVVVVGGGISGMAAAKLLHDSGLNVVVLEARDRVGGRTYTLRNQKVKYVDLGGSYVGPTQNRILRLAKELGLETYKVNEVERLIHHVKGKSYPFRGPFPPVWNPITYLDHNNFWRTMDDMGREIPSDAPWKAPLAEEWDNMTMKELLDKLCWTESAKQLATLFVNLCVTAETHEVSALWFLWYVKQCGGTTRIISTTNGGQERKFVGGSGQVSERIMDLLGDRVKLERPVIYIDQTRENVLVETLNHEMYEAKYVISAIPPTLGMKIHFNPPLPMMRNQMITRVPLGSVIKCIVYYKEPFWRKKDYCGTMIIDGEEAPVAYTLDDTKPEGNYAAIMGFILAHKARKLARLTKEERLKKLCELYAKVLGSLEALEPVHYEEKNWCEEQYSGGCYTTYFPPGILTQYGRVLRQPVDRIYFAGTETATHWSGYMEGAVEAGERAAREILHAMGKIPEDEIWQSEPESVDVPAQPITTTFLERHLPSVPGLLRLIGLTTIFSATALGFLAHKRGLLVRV
Kind of data set: hMAO-B steady-state kinetics, direct MMTP assay. As to conditions: MMTP substrate. The data set is classed as biochemical.

Where only a bound is given, the exact number is not on record here.

T1 sequence (P06276 29-602): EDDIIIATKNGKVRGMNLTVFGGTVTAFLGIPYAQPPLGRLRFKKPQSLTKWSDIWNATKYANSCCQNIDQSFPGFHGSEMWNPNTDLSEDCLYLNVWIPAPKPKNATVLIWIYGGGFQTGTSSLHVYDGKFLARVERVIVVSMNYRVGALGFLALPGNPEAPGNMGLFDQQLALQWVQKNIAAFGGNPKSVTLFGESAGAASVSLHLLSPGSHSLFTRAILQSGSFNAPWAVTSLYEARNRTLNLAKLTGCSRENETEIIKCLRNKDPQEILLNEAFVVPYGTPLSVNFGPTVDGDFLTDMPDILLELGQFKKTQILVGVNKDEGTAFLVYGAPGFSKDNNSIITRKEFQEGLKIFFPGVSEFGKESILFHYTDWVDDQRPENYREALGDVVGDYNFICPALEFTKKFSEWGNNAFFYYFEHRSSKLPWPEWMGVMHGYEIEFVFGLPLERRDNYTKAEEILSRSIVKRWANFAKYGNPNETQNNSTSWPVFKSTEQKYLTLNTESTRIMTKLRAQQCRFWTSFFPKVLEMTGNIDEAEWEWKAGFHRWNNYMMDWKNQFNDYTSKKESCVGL
Sequence of Aβ1–42 (P05067 672-713): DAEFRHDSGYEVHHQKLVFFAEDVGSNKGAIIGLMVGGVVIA

By EC50 is commonly meant the midpoint of the concentration-response curve. What is called IC50 is the point on the concentration scale where inhibition reaches its midpoint. Low values mean higher potency, high ones lower potency. What is called Papp is a coefficient for how fast a substance crosses the barrier. The low end stands for poor permeation, the high end for ready permeation. `[O-]/[N+](=C\c1ccc2cccc(O)c2n1)Cc1ccccc1` [QN 19, (Z)-N-Benzyl-1-(8-hydroxyquinolin-2-yl)methanimine oxide]: the EC50 in [1] came to 126 ± 0.1 µM. The LPS-induced nitrite concentration entry with LPS-activated BV2 cells [2] was “reduced LPS-induced increase in nitrite concentration”. Also, the “neuroprotective effects on cell viability, LPS model” value in the data set on LPS-activated BV2 cells [3] is on record as “No neuroprotective effects on cell viability”. Moreover, in [4], the “chelation of Ca^2+ and Mg^2+” value is “did not chelate”; the “complexes with Zn^2+, Cu^2+, Al^3+, Fe^2+ and Fe^3+” value is given as “generated corresponding complexes”. Further, at hBChE [5], the IC50 came out at 0.00106 ± 0.00031 µM. Also, in the data set on HepG2 cells, the “concentrations at which metabolic activity is reduced (MTS)” value is on record as “higher than 10 μmol/L”. In [6], the “effect on Aβ plaques of chronic treatment started later” value is given as “inefficient”. Moreover, the “Kii, dissociation constant for binding of the second molecule to hBChE” value at hBChE [7] is on record as 14.5 nmol/L. Moreover, the “cell viability under 6-OHDA co-treatment” value in data set [8] (19 at 0.5 and 1 μmol/L) is listed as “increased cell viability”. For the same compound, in [8] (19 at 2.5 and 5 μmol/L), the “neuroprotective activity under 6-OHDA co-treatment” value is “neuroprotective activity was lost”. The “motor impairments in the rotarod test” value in the data set on mice is “did not result in any motor impairments”. The “concentrations at which metabolic activity is reduced (MTS)” value in the data set on SH-SY5Y cells is “higher than 10 μmol/L”. In “BBB-PAMPA permeability”, this compound had a Papp at 4 h, 100 μmol/L of at least 37.2 ×10⁻⁶ cm/s. Further, the “cell viability (7-AAD)” value in the data set with microglial BV2 cells is listed as “reduced cell viability to a significant extent”. Further, on Aβ1–42 (10 μmol/L ligand and 1.5 μmol/L Aβ1–42, mean ± SD (n ≥ 3)), the “Inhibition of Aβ1–42 aggregation” value is “n.i. ^e (n.i., no inhibition <20%)”. Also, the “inhibition of self-induced aggregation of Aβ1–42 (in words)” value at Aβ1–42 (ThT fluorescence assay) is “inactive”. The “mode of hMAO-B inhibition (best fit)” value in [9] was “competitive inhibition model”.

Values taken from paper PMC10213797 (Acta Pharmaceutica Sinica. B, 2023).
